These results are taken from PubChem BioAssay AID256 (DTP/NCI, 2004).

This assay has as its system CD2F1 mice, L1210 leukemia ip, survival T/C. The experiment in a line: NCI In Vivo Anticancer Drug Screen. Data for tumor model L1210 Leukemia (intraperitoneal) in CD2F1 (CDF1) mice. To be noted: endpoint: mean survival time, higher = longer survival. Put shortly: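 Implant tumor; dose compound or vehicle; measure endpoint in both groups; report treated divided by control.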

The mark [1] stands for this setting: dose: 100.0 mg/kg/injection, schedule: Q04DX002 (ip), vehicle: saline with Tween-80.
The mark [2] stands for this setting: dose: 12.5 mg/kg/injection, schedule: Q01DX009 (ip), vehicle: saline with Tween-80.
Setting [3] is: dose: 25.0 mg/kg/injection, schedule: Q01DX009 (ip), vehicle: saline with Tween-80.
Setting [4] is: dose: 100.0 mg/kg/injection, schedule: Q01DX001 (ip), vehicle: saline.
The mark [5] stands for this setting: dose: 200.0 mg/kg/injection, schedule: Q01DX001 (ip), vehicle: saline.
Where [6] appears, read: dose: 400.0 mg/kg/injection, schedule: Q01DX001 (ip), vehicle: saline.
[7] abbreviates: dose: 100.0 mg/kg/injection, schedule: Q04DX003 (ip), vehicle: saline with Tween-80.
The mark [8] stands for this setting: dose: 200.0 mg/kg/injection, schedule: Q04DX003 (ip), vehicle: saline with Tween-80.

“And” between values parts separate entries of the source, which are not always exact repeats. Identical values can stand only once. Inconclusive results and toxic doses are left out.

Turning to `O=C(NCCI)NC1C(O)OC(CO)C(O)C1O` (stereo not drawn), the T/C was 93 % of control (dose: 12.5 mg/kg/injection, schedule: Q01DX009 (ip), vehicle: water); 92 % of control (dose: 25.0 mg/kg/injection, schedule: Q01DX009 (ip), vehicle: water); 93 % of control (dose: 50.0 mg/kg/injection, schedule: Q01DX009 (ip), vehicle: water); 95 % of control (dose: 100.0 mg/kg/injection, schedule: Q01DX009 (ip), vehicle: water); 89 % of control (dose: 200.0 mg/kg/injection, schedule: Q01DX009 (ip), vehicle: water).

As for `O=C1C2C(c3ccccc3)=C(c3ccccc3)C1[C@@]1(c3ccccc3)C(c3ccccc3)=CC(=O)[C@@H]21` (stereo partly drawn), the T/C was 87 % of control (dose: 100.0 mg/kg/injection, schedule: Q01DX001 (ip), vehicle: saline with Tween-80) and 89 % of control (dose: 400.0 mg/kg/injection, schedule: Q01DX001 (ip), vehicle: saline with Tween-80).

As to `CCCCN(N=O)C(=O)Nc1ccc(C2CC(=O)N(C)C2=O)cc1` (stereo not drawn), the T/C was 103 % of control (dose: 12.5 mg/kg/injection, schedule: Q01DX001 (ip), vehicle: distilled water + Tween-80); 99 % of control (dose: 25.0 mg/kg/injection, schedule: Q01DX001 (ip), vehicle: distilled water + Tween-80); 112 % of control (dose: 50.0 mg/kg/injection, schedule: Q01DX001 (ip), vehicle: distilled water + Tween-80); 112 % of control (dose: 100.0 mg/kg/injection, schedule: Q01DX001 (ip), vehicle: distilled water + Tween-80); 120 % of control (dose: 200.0 mg/kg/injection, schedule: Q01DX001 (ip), vehicle: distilled water + Tween-80).

Regarding `O=C(Cn1ccc(=O)[nH]c1=O)c1c[nH]c2ccccc12`, the T/C reads like this: under setting [1], 108 % of control; (dose: 200.0 mg/kg/injection, schedule: Q04DX002 (ip), vehicle: saline with Tween-80) 108 % of control; (dose: 400.0 mg/kg/injection, schedule: Q04DX002 (ip), vehicle: saline with Tween-80) 104 % of control.

For the compound `CS(=O)(=O)c1cnc2ccccc2n1`, the T/C (dose: 100.0 mg/kg/injection, schedule: Q04DX003 (ip), vehicle: saline) was 97 % of control; the T/C (dose: 200.0 mg/kg/injection, schedule: Q04DX003 (ip), vehicle: saline) is 86 % of control; the T/C (dose: 400.0 mg/kg/injection, schedule: Q04DX003 (ip), vehicle: saline) is 95 % of control.

With `CCOn1nc(-c2ccccc2)oc1=O`, the T/C by setting is: (dose: 100.0 mg/kg/injection, schedule: Q04DX003 (ip), vehicle: other) 96 % of control; (dose: 200.0 mg/kg/injection, schedule: Q04DX003 (ip), vehicle: other) 93 % of control; (dose: 400.0 mg/kg/injection, schedule: Q04DX003 (ip), vehicle: other) 116 % of control.

On to `COc1ccc(OC)c(NC(=O)N2CCCC(C)C2)c1` (stereo not drawn), for which the T/C by setting is: (dose: 88.0 mg/kg/injection, schedule: Q01DX009 (ip), vehicle: other) 95 % of control; (dose: 100.0 mg/kg/injection, schedule: Q01DX009 (ip), vehicle: other) 124 % of control; (dose: 133.0 mg/kg/injection, schedule: Q01DX009 (ip), vehicle: other) 95 % of control; (dose: 300.0 mg/kg/injection, schedule: Q01DX009 (ip), vehicle: other) 95 % of control.

`CC1=CC(=Nc2ccc(N(CCCl)CCCl)cc2)C=C(C)C1=O`: the T/C is 115 % of control and 108 % of control (dose: 6.25 mg/kg/injection, schedule: Q01DX009 (ip), vehicle: Klucel (hydroxypropylcellulose) (HPC)); 86 % of control and 96 % of control (dose: 100.0 mg/kg/injection, schedule: Q01DX009 (ip), vehicle: Klucel (hydroxypropylcellulose) (HPC)).

In the case of `N#CC1CCCC1=N` (stereo not drawn), the T/C by setting is: under setting [2], 94 % of control; under setting [3], 97 % of control; under setting [4], 110 % of control; under setting [5], 104 % of control; under setting [6], 111 % of control.

With `O=C(O)c1cc(-c2ccc(F)cc2)nc2ccc(F)cc12`, the T/C runs as follows: under setting [7], 101 % of control; under setting [8], 97 % of control.

`C/C(=N/Nc1ccc([N+](=O)[O-])cc1[N+](=O)[O-])C(C)C`: the T/C was 95 % of control (dose: 75.0 mg/kg/injection, schedule: Q04DX002 (ip), vehicle: saline with Tween-80); 98 % of control (dose: 150.0 mg/kg/injection, schedule: Q04DX002 (ip), vehicle: saline with Tween-80); 98 % of control (dose: 300.0 mg/kg/injection, schedule: Q04DX002 (ip), vehicle: saline with Tween-80).

As for `COc1ccc(OC)c(C(=O)C[n+]2ccccc2)c1`, the T/C is 101 % of control under setting [2]; 106 % of control (dose: 12.5 mg/kg/injection, schedule: Q04DX003 (ip), vehicle: saline); 103 % of control under setting [3]; 109 % of control (dose: 25.0 mg/kg/injection, schedule: Q04DX003 (ip), vehicle: saline); 100 % of control (dose: 50.0 mg/kg/injection, schedule: Q01DX009 (ip), vehicle: saline with Tween-80); 111 % of control (dose: 50.0 mg/kg/injection, schedule: Q04DX003 (ip), vehicle: saline).

On to `CCNC(=O)c1ccccc1N=NN(C)C`, for which the T/C was 105 % of control (dose: 18.7 mg/kg/injection, schedule: Q01DX009 (ip), vehicle: Klucel (hydroxypropylcellulose) (HPC)); 92 % of control and 97 % of control (dose: 18.75 mg/kg/injection, schedule: Q01DX009 (ip), vehicle: Klucel (hydroxypropylcellulose) (HPC)).

With `O=NN1CCCCCC1=O`, the T/C is, setting by setting: (dose: 75.0 mg/kg/injection, schedule: Q01DX001 (ip), vehicle: saline) 108 % of control; (dose: 150.0 mg/kg/injection, schedule: Q01DX001 (ip), vehicle: saline) 110 % of control; (dose: 300.0 mg/kg/injection, schedule: Q01DX001 (ip), vehicle: saline) 120 % of control.

`O=[N+]([O-])c1cc(Cl)c(Cl)cc1Cl`: the T/C runs as follows: (dose: 100.0 mg/kg/injection, schedule: Q01DX009 (ip), vehicle: saline with Tween-80) 92 % of control; under setting [7], 106 % of control; (dose: 200.0 mg/kg/injection, schedule: Q01DX009 (ip), vehicle: saline with Tween-80) 104 % of control; under setting [8], 101 % of control; (dose: 400.0 mg/kg/injection, schedule: Q04DX003 (ip), vehicle: saline with Tween-80) 118 % of control.

As to `CCS(=O)(=O)OCCCNCCCOS(=O)(=O)CC`, the T/C is 103 % of control (dose: 12.5 mg/kg/injection, schedule: Q01DX001 (ip), vehicle: saline); 105 % of control (dose: 25.0 mg/kg/injection, schedule: Q01DX001 (ip), vehicle: saline); 160 % of control under setting [4]; 186 % of control under setting [5].

Take `O=C1OCC2CC=CCC12` (stereo not drawn): the T/C (dose: 50.0 mg/kg/injection, schedule: Q01DX001 (ip), vehicle: carboxymethylcellulose (CMC)) is 92 % of control; the T/C (dose: 100.0 mg/kg/injection, schedule: Q01DX001 (ip), vehicle: carboxymethylcellulose (CMC)) was 100 % of control; the T/C (dose: 200.0 mg/kg/injection, schedule: Q01DX001 (ip), vehicle: carboxymethylcellulose (CMC)) is 92 % of control; the T/C (dose: 400.0 mg/kg/injection, schedule: Q01DX001 (ip), vehicle: carboxymethylcellulose (CMC)) was 97 % of control.

`C/C=C(\Br)C(=O)O`: the T/C (dose: 25.0 mg/kg/injection, schedule: Q04DX002 (ip), vehicle: saline with Tween-80) is 101 % of control; the T/C (dose: 50.0 mg/kg/injection, schedule: Q04DX002 (ip), vehicle: saline with Tween-80) was 101 % of control; the T/C under setting [1] was 104 % of control.

For `Cc1ccc(S(=O)(=O)SCC(=O)c2ccc([N+](=O)[O-])cc2)cc1`, the T/C reads like this: under setting [4], 94 % of control; (dose: 100.0 mg/kg/injection, schedule: Q01DX009 (ip), vehicle: saline sonified) 96 % of control; under setting [5], 92 % of control; (dose: 200.0 mg/kg/injection, schedule: Q01DX009 (ip), vehicle: saline sonified) 97 % of control; under setting [6], 92 % of control.

For the compound `CSc1nc2c(c(=O)[nH]1)c1c(N)ncnc1n2C1OC(CO)C(O)C1O` (stereo not drawn), the T/C reads like this: (dose: 25.0 mg/kg/injection, schedule: Q01DX005 (ip), vehicle: water) 88 % of control; (dose: 50.0 mg/kg/injection, schedule: Q01DX005 (ip), vehicle: water) 94 % of control; (dose: 100.0 mg/kg/injection, schedule: Q01DX005 (ip), vehicle: water) 88 % of control; (dose: 200.0 mg/kg/injection, schedule: Q01DX005 (ip), vehicle: water) 100 % of control.
